Reference: ChEMBL document CHEMBL2176963, “Design, synthesis, and biological evaluation of 3-(1H-1,2,3-triazol-1-yl)benzamide derivatives as Potent Pan Bcr-Abl inhibitors including the threonine(315)→isoleucine(315) mutant” (J Med Chem, 2012)

How the values were obtained:
[1] = Antiproliferative activity against mouse BA/F3 cells expressing wild type Bcr-Abl after 72 hrs by CCK-8 assay; settings: BaF3, 72 h
K562 [2] = experiment: Antiproliferative activity against human K562 cells expressing wild type Bcr-Abl after 72 hrs by CCK-8 assay; settings: K562, 72 h
[3] = Antiproliferative activity against human KU812 cells expressing wild type Bcr-Abl after 72 hrs by CCK-8 assay; settings: KU812, 72 h
K562 [4] = experiment: Antiproliferative activity against imatinib-resistant human K562 cells expressing Bcr-Abl Q252H mutant after 72 hrs by CCK-8 assay; settings: K562, 72 h
cells = settings: Mus musculus, BaF3, 72 h

Row | Structure (SMILES) | IC50 (K562 [2]) | IC50 (K562 [4]) | IC50 (cells) | IC50 [1] | IC50 [3]
1 | Cc1ccc(C(=O)Nc2ccc(CN3CCN(C)CC3)c(C(F)(F)F)c2)cc1-n1cc(-c2cnc(N3CCCCC3)nc2)nn1 | 798 nM | 893 nM | 3590 nM | 1240 nM | 158 nM
2 | Cc1ccc(C(=O)Nc2ccc(CN3CCCCC3)c(C(F)(F)F)c2)cc1-n1cc(-c2cnc3[nH]ncc3c2)nn1 | 3.22 nM | 31.1 nM | 3510 nM | 5.39 nM | 0.47 nM
3 | Cc1ccc(C(=O)Nc2ccc(CN3CCC(N(C)C)CC3)c(C(F)(F)F)c2)cc1-n1cc(-c2cnc3[nH]ncc3c2)nn1 | 0.67 nM | 6.56 nM | 527 nM | 2.76 nM | 0.43 nM
4 | CN1CCN(Cc2ccc(NC(=O)c3ccc(C4CC4)c(-n4cc(-c5cnc6[nH]ncc6c5)nn4)c3)cc2C(F)(F)F)CC1 | 5.69 nM | 37.5 nM | 1160 nM | 32.9 nM | 4.05 nM
5 | Cc1ccc(C(=O)Nc2ccc(CN3CCN(C)CC3)c(C(F)(F)F)c2)cc1-n1cc(-c2cnc(NCc3ccccc3)nc2)nn1 | 8.82 nM | 181 nM | 3500 nM | 28.2 nM | 1.89 nM
6 | Cc1ncn(-c2cc(NC(=O)c3ccc(C)c(-n4cc(-c5cnc6[nH]ncc6c5)nn4)c3)cc(C(F)(F)F)c2)n1 | 2.9 nM | 34.2 nM | 620 nM | 3.68 nM | 0.4 nM
7 | Cc1ccc(C(=O)Nc2ccc(CN3CC[C@H](N(C)C)C3)c(C(F)(F)F)c2)cc1-n1cc(-c2cnc3[nH]ncc3c2)nn1 | 0.32 nM | 2.24 nM | 91.7 nM | 3.01 nM | 0.68 nM
8 | Cc1ccc(C(=O)Nc2ccc(CN3CCC(N4CCN(C)CC4)CC3)c(C(F)(F)F)c2)cc1-n1cc(-c2cnc3[nH]ncc3c2)nn1 | 1.25 nM | 4.32 nM | 873 nM | 23.8 nM | 1.48 nM
9 | CN1CCN(Cc2ccc(NC(=O)c3cccc(-n4cc(-c5cnc6[nH]ncc6c5)nn4)c3)cc2C(F)(F)F)CC1 | 0.67 nM | 10.8 nM | 728 nM | 3.98 nM | 1.34 nM
10 | Cc1ccc(C(=O)Nc2ccc(CN3CCN(C)CC3)c(C(F)(F)F)c2)cc1-n1cc(-c2cnc3cccnn23)nn1 | 35.8 nM | 1.41 nM | > 10000 nM | 27.4 nM | 14.6 nM
11 | Cc1ccc(C(=O)Nc2ccc(CN3CC[C@@H](N(C)C)C3)c(C(F)(F)F)c2)cc1-n1cc(-c2cnc3[nH]ncc3c2)nn1 | 0.31 nM | 3.15 nM | 544 nM | 3.43 nM | 0.24 nM
12 | Cc1ccc(C(=O)Nc2ccc(CN3CCN(C)CC3)c(C(F)(F)F)c2)cc1-n1cc(-c2cnc(NC(C)C)nc2)nn1 | 7.26 nM | 81.2 nM | 799 nM | 32.8 nM | 1.44 nM
13 | Cc1ccc(C(=O)Nc2ccc(CN3CCN(C)CC3)c(C(F)(F)F)c2)cc1-n1cc(-c2cnc3ccccn23)nn1 | 0.63 nM | 1.85 nM | 178 nM | 4.54 nM | 0.16 nM
14 | Cc1ccc(C(=O)Nc2ccc(CN3C[C@H]4CN(C)C[C@H]4C3)c(C(F)(F)F)c2)cc1-n1cc(-c2cnc3[nH]ncc3c2)nn1 | 0.25 nM | 3.55 nM | 473 nM | 3.66 nM | 0.4 nM
15 | Cc1ccc(C(=O)Nc2ccc(CN3CCN(C)CC3)c(C(F)(F)F)c2)cc1-n1cc(-c2cnc(NC3CCCCC3)nc2)nn1 | 7.04 nM | 72.8 nM | 3630 nM | 28.3 nM | 1.57 nM
16 | Cc1ccc(C(=O)Nc2ccc(CN3CCN(C)CC3)c(C(F)(F)F)c2)cc1-n1cc(-c2cnc3ncccn23)nn1 | 3.87 nM | 16.2 nM | 8840 nM | 47.9 nM | 11.1 nM
17 | Cc1ccc(C(=O)Nc2ccc(CN3CCN(C)CC3)c(C(F)(F)F)c2)cc1-n1cc(-c2cnc(NC3CC3)nc2)nn1 | 1.24 nM | 19.2 nM | 579 nM | 3.01 nM | 0.22 nM
18 | Cc1ccc(C(=O)Nc2ccc(CN3CCOCC3)c(C(F)(F)F)c2)cc1-n1cc(-c2cnc3[nH]ncc3c2)nn1 | 3.41 nM | 41.1 nM | 1560 nM | 4.46 nM | 0.46 nM
19 | Cc1cn(-c2cc(NC(=O)c3ccc(C)c(-n4cc(-c5cnc6[nH]ncc6c5)nn4)c3)cc(C(F)(F)F)c2)cn1 | 3.37 nM | 25.7 nM | 656 nM | 4.72 nM | 0.73 nM
20 | Cc1ccc(C(=O)Nc2cc(-n3cncn3)cc(C(F)(F)F)c2)cc1-n1cc(-c2cnc3[nH]ncc3c2)nn1 | 3.5 nM | 21.9 nM | 652 nM | 4.54 nM | 0.46 nM
21 | Cc1ccc(C(=O)Nc2ccc(CN3CCN(C)CC3)c(C(F)(F)F)c2)cc1-n1cc(-c2cnn3cccnc23)nn1 | 2.45 nM | 17.1 nM | 1440 nM | 7.31 nM | 1.51 nM
22 | Cc1ccc(Nc2ncc3c(n2)N(C)C(=O)N(c2cc(NC(=O)c4cccc(C(F)(F)F)c4)ccc2C)C3)cn1 | 0.44 nM | 2.6 nM | 6.18 nM | 3.15 nM | 0.08 nM

The next lines start with results.

Row | IC50 (K562 [2]) | IC50 (K562 [4]) | IC50 (cells) | Structure (SMILES) | IC50 [1] | IC50 [3]
23 | 0.66 nM | 12.1 nM | 939 nM | Cc1ccc(C(=O)Nc2ccc(CN3CCCC3)c(C(F)(F)F)c2)cc1-n1cc(-c2cnc3[nH]ncc3c2)nn1 | 2.47 nM | 0.19 nM
24 | 0.85 nM | 8.96 nM | 282 nM | CCc1ccc(C(=O)Nc2ccc(CN3CCN(C)CC3)c(C(F)(F)F)c2)cc1-n1cc(-c2cnc3[nH]ncc3c2)nn1 | 4.04 nM | 0.39 nM
25 | 0.39 nM | 4.74 nM | 79.6 nM | Cc1ccc(C(=O)Nc2ccc(CN3CCN(C)CC3)c(C(F)(F)F)c2)cc1-n1cc(-c2cnc3[nH]nc(C)c3c2)nn1 | 2.03 nM | 0.15 nM
26 | 74 nM | 219 nM | 2060 nM | CC(C)c1ccc(C(=O)Nc2ccc(CN3CCN(C)CC3)c(C(F)(F)F)c2)cc1-n1cc(-c2cnc3[nH]ncc3c2)nn1 | 420 nM | 14.2 nM
27 | 0.24 nM | 2.28 nM | 130 nM | CN1CCN(Cc2ccc(NC(=O)c3ccc(F)c(-n4cc(-c5cnc6[nH]ncc6c5)nn4)c3)cc2C(F)(F)F)CC1 | 3.9 nM | 0.1 nM
28 | 70.4 nM | 800 nM | 999 nM | Cc1ccc(C(=O)Nc2ccc(CN3CCN(C)CC3)c(C(F)(F)F)c2)cc1-n1cc(-c2ccc3[nH]ccc3c2)nn1 | 435 nM | 19.6 nM
29 | 0.23 nM | 1.49 nM | 46.4 nM | CN1CCN(Cc2ccc(NC(=O)c3ccc(Br)c(-n4cc(-c5cnc6[nH]ncc6c5)nn4)c3)cc2C(F)(F)F)CC1 | 3.28 nM | 0.1 nM
30 | 1.26 nM | 20.2 nM | 405 nM | CCNc1ncc(-c2cn(-c3cc(C(=O)Nc4ccc(CN5CCN(C)CC5)c(C(F)(F)F)c4)ccc3C)nn2)cn1 | 3.04 nM | 0.2 nM
31 | 40.9 nM | 76.8 nM | 533 nM | Cc1ccc(C(=O)Nc2ccc(CN3CCN(C)CC3)c(C(F)(F)F)c2)cc1-n1cc(-c2cnc3ncnn3c2)nn1 | 316 nM | 11.2 nM
32 | 12.4 nM | 109 nM | 754 nM | Cc1ccc(C(=O)Nc2ccc(CN3CCN(C)CC3)c(C(F)(F)F)c2)cc1-n1cc(-c2ccc3[nH]ncc3c2)nn1 | 56.2 nM | 12.2 nM
33 | 0.42 nM | 3.89 nM | 66.9 nM | Cc1ccc(C(=O)Nc2ccc(CN3CCN(C)CC3)c(C(F)(F)F)c2)cc1-n1cc(-c2cnc3[nH]ccc3c2)nn1 | 3.16 nM | 0.14 nM
34 | 0.67 nM | 11 nM | 299 nM | CNc1ncc(-c2cn(-c3cc(C(=O)Nc4ccc(CN5CCN(C)CC5)c(C(F)(F)F)c4)ccc3C)nn2)cn1 | 2.74 nM | 0.16 nM
35 | 0.8 nM | 8.45 nM | 294 nM | Cc1ccc(C(=O)Nc2ccc(CN3CCCN(C)CC3)c(C(F)(F)F)c2)cc1-n1cc(-c2cnc3[nH]ncc3c2)nn1 | 4.02 nM | 0.38 nM
36 | 0.85 nM | 17.1 nM | 494 nM | Cc1ccc(C(=O)Nc2ccc(CN3CCN(C)CC3)c(C(F)(F)F)c2)cc1-n1cc(-c2cnc(N)nc2)nn1 | 3.35 nM | 0.2 nM
